Test results: US12545677B2, “Compounds useful as factor XIa inhibitors” (JANSSEN PHARMACEUTICA NV, priority 2020, dated 2026)

Columns and labels:
[1] = tested on: TK6 human lymphoblastoid cell line; experiment: In vitro micronucleus assay; assay type: cell-based; conditions: TK6 cells, 3 h +S9 and continuous -S9; score of 1 = clearly negative
Experimental: Biological Example 8: In Vitro Micronucleus Assay
The in vitro micronucleus test (MNT) is a genotoxicity test for the detection of micronuclei (MN) in the cytoplasm of interphase cells. Micronuclei may originate from acentric chromosome fragments (i.e., lacking a centromere) or whole chromosomes that are unable to migrate to the poles during the anaphase stage of cell division. Compounds and/or their metabolites are evaluated for their ability to induce chromosome/genome aberrations in a TK6 human lymphoblastoid cell line, in the absence and in the presence of a mammalian metabolic activation system. Human TK6 cells are often used in the in vitro micronucleus test and it is noteworthy that these cells have a wild-type p53 status, a feature that some groups speculate may help to reduce the frequency of false positive results. The assessment is done by means of manual and/or semi-automated microscopical analysis.
The in vitro micronucleus test using TK6 cells is an accepted regulatory genotoxicity assay. […]
Assay principle: Cell cultures were exposed to the test compound both with and without an exogenous source of metabolic activation. […] Harvested and stained interphase cells were analyzed for the presence of micronuclei. […]

[2] = tested on: activated partial thromboplastin time (aPTT); experiment: Ex vivo clotting assay (aPTT); assay type: in vivo, New Zealand White (NZW) rabbits; conditions: for ex vivo aPTT Onset of Clotting Time, mean: n 4, in s (unit assumed)
Text: The following coagulation reagents were purchased from Diagnostica Stago (Parsippany, NJ): Thrombin 10 (Catalog No: 00611, lot No: 251851) for thrombin time (TT), Neoplastine® Cl 5 (Catalog No: 00666, lot No: 01504) for prothrombin time (PT), C.K. Prest® 5 (Catalog No: 00597, lot No: 112768) and CaCl2 (0.025 M, Catalog No: 00367, Lot No: 254158) for activated partial thromboplastin time (aPTT). Coagulometer STA rt4 (Diagnotica Stago) was used for ex vivo clotting time analysis.
Blood samples (1 mL each) were collected in 3.2% sodium citrate (BD Biosciences, Franklin Lakes, NJ) before and after shunt set up from the femoral artery cannula and centrifuged at 2500 g for 15 minutes at 20° C. The resulting platelet poor plasma (PPP) was transferred into clean tubes and stored at −80° C. until use.
Coagulation assays were performed with PPP in a 4 channel coagulometer STA rt4 (Diagnotica Stago). For the aPTT assay, 50 μl C.K. Preset reagent was incubated with 50 μl PPP for 3 min at 37° C. in a cuvette, and coagulation was initiated by adding 50 μl 25 mM CaCl2). The onset of clotting was recorded as the coagulation time.
Statistical analysis: All the data are expressed as mean±SEM. Statistical analyses were performed using GraphPad Prism software (v8.0). Significance was defined at p<0.05 as determined by one-way ANOVA. Tukey's test was used for multiple comparisons.

[3] = 0.15 + 0.13 mg/kg initial + maintenance, 20 min post initial dose
[4] = 0.15 + 0.13 mg/kg initial + maintenance, 60 min post initial dose
[5] = 0.5 + 0.43 mg/kg initial + maintenance, 20 min post initial dose
[6] = 0.5 + 0.43 mg/kg initial + maintenance, 60 min post initial dose
[7] = 1.5 + 1.3 mg/kg initial + maintenance, 20 min post initial dose
[8] = 1.5 + 1.3 mg/kg initial + maintenance, 60 min post initial dose
[9] = 5.0 + 4.3 mg/kg initial + maintenance, 20 min post initial dose
[10] = 5.0 + 4.3 mg/kg initial + maintenance, 60 min post initial dose
[11] = 15.0 + 13.0 mg/kg initial + maintenance, 20 min post initial dose
[12] = 15.0 + 13.0 mg/kg initial + maintenance, 60 min post initial dose

O=C1C=C(c2c(-n3cnnn3)ccc(Cl)c2F)C[C@H]2CC[C@@H](c3ncc(-c4ccnc(CO)c4F)[nH]3)N12 [Compound of formula (I-A), (3S,8aR)-7-(3-Chloro-2-fluoro-6-(1H-tetrazol-1-yl)phenyl)-3-(5-(3-fluoro-2-(hydroxymethyl)pyridin-4-yl)-1H-imidazol-2-yl)-2,3,8,8a-tetrahydroindolizin-5(1H)-one]
in vitro MNT assay result [1]: negative
ex vivo aPTT, Fold vs baseline [2, 3]: 1.37
ex vivo aPTT Onset of Clotting Time, mean [2, 3]: 28.00
ex vivo aPTT, Fold vs baseline [2, 4]: 1.17
ex vivo aPTT Onset of Clotting Time, mean [2, 4]: 23.88
ex vivo aPTT, Fold vs baseline [2, 5]: 1.24
ex vivo aPTT Onset of Clotting Time, mean [2, 5]: 25.40
ex vivo aPTT, Fold vs baseline [2, 6]: 1.02
ex vivo aPTT Onset of Clotting Time, mean [2, 6]: 20.95
ex vivo aPTT, Fold vs baseline [2, 7]: 1.59
ex vivo aPTT Onset of Clotting Time, mean [2, 7]: 32.50
ex vivo aPTT, Fold vs baseline [2, 8]: 1.37
ex vivo aPTT Onset of Clotting Time, mean [2, 8]: 28.05
ex vivo aPTT, Fold vs baseline [2, 9]: 2.32
ex vivo aPTT Onset of Clotting Time, mean [2, 9]: 47.40
ex vivo aPTT, Fold vs baseline [2, 10]: 2.14
ex vivo aPTT Onset of Clotting Time, mean [2, 10]: 43.75
ex vivo aPTT, Fold vs baseline [2, 11]: 3.40
ex vivo aPTT Onset of Clotting Time, mean [2, 11]: 69.6
ex vivo aPTT, Fold vs baseline [2, 12]: 3.27
ex vivo aPTT Onset of Clotting Time, mean [2, 12]: 67.00
